From PubChem BioAssay AID1259407 (Chemical Carcinogenesis Research Information System (CCRIS), 2018)
The source made the active and inactive calls. The rule behind the calls is not given here.

Tested on: CCRIS mutagenicity, Ames/micronucleus/aberration tests
Assay: CCRIS mutagenicity studies
[1] = Test System: AMES SALMONELLA TYPHIMURIUM, Strain/Indicator: TA98, Metabolic Activation: NONE, Method: PREINCUBATION
[2] = Test System: AMES SALMONELLA TYPHIMURIUM, Strain/Indicator: TA98, Metabolic Activation: NONE, Method: STANDARD PLATE
[3] = Test System: AMES SALMONELLA TYPHIMURIUM, Strain/Indicator: TA98, Metabolic Activation: S-9, Method: STANDARD PLATE
[4] = Test System: AMES SALMONELLA TYPHIMURIUM, Strain/Indicator: TA100, Metabolic Activation: NONE, Method: PREINCUBATION
[5] = Test System: AMES SALMONELLA TYPHIMURIUM, Strain/Indicator: TA100, Metabolic Activation: NONE, Method: STANDARD PLATE
[6] = Test System: AMES SALMONELLA TYPHIMURIUM, Strain/Indicator: TA100, Metabolic Activation: S-9, Method: STANDARD PLATE
[7] = Test System: AMES SALMONELLA TYPHIMURIUM, Strain/Indicator: TA1535, Metabolic Activation: NONE, Method: PREINCUBATION
[8] = Test System: AMES SALMONELLA TYPHIMURIUM, Strain/Indicator: TA1537, Metabolic Activation: NONE, Method: PREINCUBATION
[9] = Test System: AMES SALMONELLA TYPHIMURIUM, Strain/Indicator: TA100, Metabolic Activation: RAT, LIVER, S-9, AROCLOR 1254, Method: STANDARD PLATE

`CC1=CC(C)(C)Nc2ccccc21` was tested, and the mutagenic call (Test System: AMES SALMONELLA TYPHIMURIUM, Strain/Indicator: TA98, Metabolic Activation: HAMSTER, LIVER, S-9, AROCLOR 1254 (10%), Method: PREINCUBATION) was “inactive; negative”, the mutagenic call [1] was “inactive; negative” and the mutagenic call [2] was “inactive; negative”. For the same compound, the mutagenic call (Test System: AMES SALMONELLA TYPHIMURIUM, Strain/Indicator: TA98, Metabolic Activation: RAT, LIVER, S-9, AROCLOR 1254 (10%), Method: PREINCUBATION) was “inactive; negative”, the mutagenic call [3] was “inactive; negative” and the mutagenic call (Test System: AMES SALMONELLA TYPHIMURIUM, Strain/Indicator: TA100, Metabolic Activation: HAMSTER, LIVER, S-9, AROCLOR 1254 (10%), Method: PREINCUBATION) was “inactive; negative”. The mutagenic call [4] was “inactive; negative”, the mutagenic call [5] was “inactive; negative” and the mutagenic call (Test System: AMES SALMONELLA TYPHIMURIUM, Strain/Indicator: TA100, Metabolic Activation: RAT, LIVER, S-9, AROCLOR 1254 (10%), Method: PREINCUBATION) was “inactive; negative”. The mutagenic call [6] was “inactive; negative”, the mutagenic call (Test System: AMES SALMONELLA TYPHIMURIUM, Strain/Indicator: TA1535, Metabolic Activation: HAMSTER, LIVER, S-9, AROCLOR 1254 (10%), Method: PREINCUBATION) was “inactive; negative” and the mutagenic call [7] was “inactive; negative”. For the same compound, the mutagenic call (Test System: AMES SALMONELLA TYPHIMURIUM, Strain/Indicator: TA1535, Metabolic Activation: RAT, LIVER, S-9, AROCLOR 1254 (10%), Method: PREINCUBATION) was “inactive; negative”, the mutagenic call (Test System: AMES SALMONELLA TYPHIMURIUM, Strain/Indicator: TA1537, Metabolic Activation: HAMSTER, LIVER, S-9, AROCLOR 1254 (10%), Method: PREINCUBATION) was “inactive; negative” and the mutagenic call [8] was “inactive; negative”. The mutagenic call (Test System: AMES SALMONELLA TYPHIMURIUM, Strain/Indicator: TA1537, Metabolic Activation: RAT, LIVER, S-9, AROCLOR 1254 (10%), Method: PREINCUBATION) was “inactive; negative”.
With `CC1=C(C(=O)Nc2ccccc2)SCCO1` the mutagenic call (Test System: AMES SALMONELLA TYPHIMURIUM, Strain/Indicator: TA97A, Metabolic Activation: NONE, Method: STANDARD PLATE) was “inactive; negative”, the mutagenic call (Test System: AMES SALMONELLA TYPHIMURIUM, Strain/Indicator: TA97A, Metabolic Activation: PLANT, HOMOGENATE, S-14, Method: STANDARD PLATE) was “inactive; negative” and the mutagenic call (Test System: AMES SALMONELLA TYPHIMURIUM, Strain/Indicator: TA97A, Metabolic Activation: S-9, Method: STANDARD PLATE) was “inactive; negative”. For the same compound, the mutagenic call [2] was “inactive; negative”, the mutagenic call (Test System: AMES SALMONELLA TYPHIMURIUM, Strain/Indicator: TA98, Metabolic Activation: PLANT, HOMOGENATE, S-14, Method: STANDARD PLATE) was “inactive; negative” and the mutagenic call [3] was “inactive; negative”. For the same compound, the mutagenic call [5] was “inactive; negative”, the mutagenic call (Test System: AMES SALMONELLA TYPHIMURIUM, Strain/Indicator: TA100, Metabolic Activation: PLANT, HOMOGENATE, S-14, Method: STANDARD PLATE) was “inactive; negative” and the mutagenic call [6] was “inactive; negative”. The mutagenic call (Test System: AMES SALMONELLA TYPHIMURIUM, Strain/Indicator: TA1535, Metabolic Activation: NONE, Method: STANDARD PLATE) was “inactive; negative”, the mutagenic call (Test System: AMES SALMONELLA TYPHIMURIUM, Strain/Indicator: TA1535, Metabolic Activation: PLANT, HOMOGENATE, S-14, Method: STANDARD PLATE) was “inactive; negative” and the mutagenic call (Test System: AMES SALMONELLA TYPHIMURIUM, Strain/Indicator: TA1535, Metabolic Activation: S-9, Method: STANDARD PLATE) was “inactive; negative”.
With `O=C1c2ccccc2-c2ccc3ccc4ccccc4c3c21` the mutagenic call [9] was “inactive; negative”.
`Nc1ncnc2c1ncn2C(c1ccccc1)c1ccccc1` was tested, and the mutagenic call (Test System: AMES SALMONELLA TYPHIMURIUM, Strain/Indicator: TA97, Metabolic Activation: NONE, Method: STANDARD PLATE) was “inactive; negative”, the mutagenic call (Test System: AMES SALMONELLA TYPHIMURIUM, Strain/Indicator: TA97, Metabolic Activation: RAT, LIVER, S-9, AROCLOR 1254, Method: STANDARD PLATE) was “inactive; negative” and the mutagenic call [2] was “inactive; negative”. For the same compound, the mutagenic call (Test System: AMES SALMONELLA TYPHIMURIUM, Strain/Indicator: TA98, Metabolic Activation: RAT, LIVER, S-9, AROCLOR 1254, Method: STANDARD PLATE) was “active; positive”, the mutagenic call [5] was “inactive; negative” and the mutagenic call [9] was “inactive; negative”.
`OCC(CO)(CO)CO` was tested, and the mutagenic call [1] was “inactive; negative”, the mutagenic call (Test System: AMES SALMONELLA TYPHIMURIUM, Strain/Indicator: TA98, Metabolic Activation: RAT, LIVER, S-9, KC 500, Method: PREINCUBATION) was “inactive; negative” and the mutagenic call (Test System: AMES SALMONELLA TYPHIMURIUM, Strain/Indicator: TA98, Metabolic Activation: RAT, LIVER, S-9, SODIUM PHENOBARBITAL AND 5,6-BENZOFLAVONE, Method: PREINCUBATION) was “inactive; negative”. The mutagenic call [4] was “inactive; negative”, the mutagenic call (Test System: AMES SALMONELLA TYPHIMURIUM, Strain/Indicator: TA100, Metabolic Activation: RAT, LIVER, S-9, KC 500, Method: PREINCUBATION) was “inactive; negative” and the mutagenic call (Test System: AMES SALMONELLA TYPHIMURIUM, Strain/Indicator: TA100, Metabolic Activation: RAT, LIVER, S-9, SODIUM PHENOBARBITAL AND 5,6-BENZOFLAVONE, Method: PREINCUBATION) was “inactive; negative”. The mutagenic call (Test System: AMES SALMONELLA TYPHIMURIUM, Strain/Indicator: TA102, Metabolic Activation: NONE, Method: PREINCUBATION) was “inactive; negative”, the mutagenic call (Test System: AMES SALMONELLA TYPHIMURIUM, Strain/Indicator: TA102, Metabolic Activation: RAT, LIVER, S-9, SODIUM PHENOBARBITAL AND 5,6-BENZOFLAVONE, Method: PREINCUBATION) was “inactive; negative” and the mutagenic call (Test System: AMES SALMONELLA TYPHIMURIUM, Strain/Indicator: TA104, Metabolic Activation: NONE, Method: PREINCUBATION) was “inactive; negative”. For the same compound, the mutagenic call (Test System: AMES SALMONELLA TYPHIMURIUM, Strain/Indicator: TA104, Metabolic Activation: RAT, LIVER, S-9, SODIUM PHENOBARBITAL AND 5,6-BENZOFLAVONE, Method: PREINCUBATION) was “inactive; negative”, the mutagenic call [7] was “inactive; negative” and the mutagenic call (Test System: AMES SALMONELLA TYPHIMURIUM, Strain/Indicator: TA1535, Metabolic Activation: RAT, LIVER, S-9, KC 500, Method: PREINCUBATION) was “inactive; negative”. The mutagenic call (Test System: AMES SALMONELLA TYPHIMURIUM, Strain/Indicator: TA1535, Metabolic Activation: RAT, LIVER, S-9, SODIUM PHENOBARBITAL AND 5,6-BENZOFLAVONE, Method: PREINCUBATION) was “inactive; negative”, the mutagenic call [8] was “inactive; negative” and the mutagenic call (Test System: AMES SALMONELLA TYPHIMURIUM, Strain/Indicator: TA1537, Metabolic Activation: RAT, LIVER, S-9, KC 500, Method: PREINCUBATION) was “inactive; negative”. The mutagenic call (Test System: AMES SALMONELLA TYPHIMURIUM, Strain/Indicator: TA1537, Metabolic Activation: RAT, LIVER, S-9, SODIUM PHENOBARBITAL AND 5,6-BENZOFLAVONE, Method: PREINCUBATION) was “inactive; negative”, the mutagenic call (Test System: AMES SALMONELLA TYPHIMURIUM, Strain/Indicator: TA1538, Metabolic Activation: NONE, Method: PREINCUBATION) was “inactive; negative” and the mutagenic call (Test System: AMES SALMONELLA TYPHIMURIUM, Strain/Indicator: TA1538, Metabolic Activation: RAT, LIVER, S-9, KC 500, Method: PREINCUBATION) was “inactive; negative”. For the same compound, the mutagenic call (Test System: E. COLI, Strain/Indicator: WP2UVRA/PKM101, Metabolic Activation: NONE, Method: PREINCUBATION) was “inactive; negative”, the mutagenic call (Test System: E. COLI, Strain/Indicator: WP2UVRA/PKM101, Metabolic Activation: RAT, LIVER, S-9, SODIUM PHENOBARBITAL AND 5,6-BENZOFLAVONE, Method: PREINCUBATION) was “inactive; negative” and the mutagenic call (Test System: E. COLI, Strain/Indicator: WP2UVRA, Metabolic Activation: NONE, Method: PREINCUBATION) was “inactive; negative”. For the same compound, the mutagenic call (Test System: E. COLI, Strain/Indicator: WP2 UVRA, Metabolic Activation: RAT, LIVER, S-9, KC 500, Method: PREINCUBATION) was “inactive; negative” and the mutagenic call (Test System: E. COLI, Strain/Indicator: WP2UVRA, Metabolic Activation: RAT, LIVER, S-9, SODIUM PHENOBARBITAL AND 5,6-BENZOFLAVONE, Method: PREINCUBATION) was “inactive; negative”.
